Columns and labels:
[1] = target: bovine heart mitochondrial complex I (Bos taurus, UniProt P03887+P17694+P42026); experiment: Complex I (NADH-Q1 oxidoreductase) inhibition in submitochondrial particles; type: biochemical; conditions: submitochondrial particles, 30° C.; for IC50: read-out: Complex I inhibition IC50; for Emax: read-out: Complex I inhibition Imax
[2] = test system: NADH oxidase (complexes I, III and IV); experiment: NADH oxidase activity (complexes I, III and IV) in submitochondrial particles; type: biochemical, bovine
[3] = test system: Friedreich's ataxia lymphoblast cell line GM15850; experiment: Cytoprotection (trypan blue exclusion assay) of DEM-treated FRDA lymphocytes; type: cell-based; conditions: for viability at 5 µM / viability at 0.1 µM / viability at 0.5 µM / viability at 2.5 µM / viability at 1 µM: Homo sapiens, GM15850, DEM alone 18 ± 10% viability, read-out: Cytoprotection (cell viability, % of untreated control)
Method: Cell viability was determined by trypan blue exclusion assay in Friedreich's ataxia lymphoblast cell line GM15850 (Coriell Institute, New Jersey). This technique was used to assess the cytoprotective effects of the tested compounds in cultured cells treated with DEM to induce cell death by GSH depletion. The viability of DEM-treated FRDA cells was determined by their ability to exclude the dye trypan blue. Viable cells exclude trypan blue, whereas non-viable cells take up the dye and stain blue. Briefly, FRDA lymphocytes were grown in RPMI 1640 medium (Gibco) supplemented with 15% fetal calf serum, 2 mM glutamine (HyClone) and 1% penicillin-streptomycin mix (Cellgro). Cells were seeded at a density of 5×10^5 cells/mL and treated with different concentrations of the indicated compounds. Cells were incubated at 37° C. in a humidified atmosphere of 5% CO2 in air for 17 h. After pre-incubation, the cells were treated with 5 mM DEM. Cell viability was determined by staining cells with 0.4% trypan blue using a hemacytometer. At least 500 cells were counted in each experimental group. At the time of assay, <20% of DEM treated cells were viable (trypan blue negative), whereas in non DEM-treated control, >90% cells were viable. Cell viability was expressed as the percentage of control. Data are expressed as means±S.E.M. (n=3).
Cell viability was determined by trypan blue exclusion assay in Friedreich's ataxia lymphoblast cell line GM15850 (Coriell Institute). This technique was used to assess the cytoprotective effects of the compounds in cultured cells treated with diethyl maleate (DEM) to induce cell death by glutathione (GSH) depletion. The viability of DEM-treated FRDA cells was determined by their ability to exclude the dye trypan blue. Viable cells exclude trypan blue, whereas non-viable cells take up the dye and stain blue. […] Benzoquinone analogue 9 afforded greater cyoprotection to FRDA lymphocytes at 5 μM concentration than did the tert-butyl ester 6 (74 vs 50%).

FRDA lymphocytes = experiment: Suppression of lipid peroxidation (C11-BODIPY581/591, FACS) in FRDA lymphocytes treated with diethyl maleate; type: cell-based; conditions: Lymphocyte, DEM, read-out: Scavenging activity (%), suppression of lipid peroxidation
Description: Several methods for assaying lipid peroxidation in vitro have been developed (Kuypers et al. (1987) Biochim Biophys Acta. 25, 266-274; Pap et al. (1999) FEBS Lett. 453, 278-282; Drummen et al. (2002) Free RadicBiol Med. 33, 473-490). Almost all of these methods are based on inhibition of free radical-induced oxidation reactions. A widely used fluorescence assay for lipid peroxidation uses lipid soluble cis-parinaric acid as a probe. cis-parinaric acid loses its fluorescence (λexc/em: 320/432 nm) upon interaction with peroxyl radicals and retains its fluorescence in the presence of radical quenchers. cis-parinaric acid is, however, air sensitive, photolabile and absorbs light in the UV region of the spectrum (at ˜320 nm). […] In practical terms, the results obtained using cis-parinaric as a probe for lipid peroxidation are confounded due to the overlapping of the compounds emission spectra with the cis-parinaric emission spectrum. C11-BODIPY^581/591 Oxidation to Measure Lipid Peroxidation To overcome the problem of spectral overlap using cis-parinaric acid, a fluorescence assay for lipid peroxidation using a lipophilic probe belonging to the BODIPY class of fluorescent dyes was used C11-BODIPY^581/591 (4,4-difluoro-5(4-phenyl-1,3-butadienyl)-4-bora-3a, 4a-diaza-s-indacene-3-propionic acid) fluorescent shifts from red to green upon oxidation. C11-BODIPY^581/591 (Molecular Probes, Eugene, Oreg., USA) stock solution concentrations were determined by measuring the absorption of C11-BODIPY^581/591 at 582 nm using a molar extinction coefficient of 140,000 mol^−1 cm^−1 (R. P. Haugland, (1999) Handbook of Fluorescent Probes and Research Chemicals, Molecular Probes, Inc., Eugene, Oreg.). The lipid peroxidation inducer 2,2′-Azobis (2-amidino-propane dihydrochloride) (AAPH) and the antioxidant compound α-tocopherol (α-TOH) were obtained from Sigma (St. Louis, Mo., USA). Phospholipid bilayers were prepared from 1-stearoyl-2-oleoyl-phosphatidylcholine (SOPC) and 1,2-dilinoleoyl-phosphatidylcholine (DLPC) and were purchased from Avanti® polar lipids, Inc., (Alabaster, Ala., USA). Preparation of Liposomes Phosphotidylcholine (PC) liposomes were prepared as described before (Guey-Shuang et al. (1982) Lipids. 17, 403-413). Briefly, DLPC (25 mg) were dissolved in chloroform and the solvent was removed by nitrogen evaporation (˜2 hours) to give a thin film of PC in a round bottom flask. The lipid film was hydrated with 50 mL of 10 mM Tris-HCl (pH 7.4), 100 mM KCl, shaken and sonicated for 15 seconds. The liposomes obtained were filtered several times through […] membrane filter. Measurement of C11-BODIPY^581/591 Oxidation C11-BODIPY^581/591 was incorporated into liposomes and oxidized by peroxyl radicals derived from the decomposition of AAPH in the presence and absence of compounds. Liposomes (1 mg/mL), suspended in 10 mM Tris-HCl (pH 7.4), 100 mM KCl, were transferred to a quartz 1 mL cuvette and placed in a Varian Cary Eclipse fluorometer (Varian, Cary, N.C.) equipped with a thermostatted cuvette holder at 40° C. Liposomes were pre-incubated for 10 min with 200 nM C11-BODIPY^581/591 to allow their incorporation into the lipid phase of the liposomes. After the addition of AAPH (10 mM) the decay of the red fluorescence was followed at λ exc=570 nm, λ em=600 nm. Relative fluorescence units were normalized to 100% intensity. Results obtained were verified by repeating experiments N=3 independent experiments. Measurement of C11-BODIPY^581/591 Oxidation in Cell Culture A quantitative FACS analysis of lipid peroxidation of FRDA lymphocytes, which had been treated with diethyl maleate following incubation in the presence and absence of the test compounds, was measured as described (Khdour et al. (2011) Pharmaceut. Res. 28, 2896-2909). Briefly, FRDA lymphocytes (5×10^5 cell/mL) were treated with the test compounds at final concentrations of 5 and 10 μM and incubated at 37° C. for 16 h in a humidified atmosphere containing 5% CO2 in air. […]

Chain of bovine heart mitochondrial complex I (P25708 21-464): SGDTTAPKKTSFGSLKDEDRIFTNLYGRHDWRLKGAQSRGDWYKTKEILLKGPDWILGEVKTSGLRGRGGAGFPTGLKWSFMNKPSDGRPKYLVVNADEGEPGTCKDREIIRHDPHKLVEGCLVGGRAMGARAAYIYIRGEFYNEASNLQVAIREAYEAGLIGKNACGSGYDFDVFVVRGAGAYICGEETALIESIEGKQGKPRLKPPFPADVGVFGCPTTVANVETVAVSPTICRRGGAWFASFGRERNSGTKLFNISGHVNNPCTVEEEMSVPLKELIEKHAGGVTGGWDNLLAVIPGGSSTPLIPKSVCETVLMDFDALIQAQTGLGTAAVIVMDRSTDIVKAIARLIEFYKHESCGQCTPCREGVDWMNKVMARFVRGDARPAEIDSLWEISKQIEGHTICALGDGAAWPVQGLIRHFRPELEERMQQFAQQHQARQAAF
Chain of bovine heart mitochondrial complex I (P42026 38-216): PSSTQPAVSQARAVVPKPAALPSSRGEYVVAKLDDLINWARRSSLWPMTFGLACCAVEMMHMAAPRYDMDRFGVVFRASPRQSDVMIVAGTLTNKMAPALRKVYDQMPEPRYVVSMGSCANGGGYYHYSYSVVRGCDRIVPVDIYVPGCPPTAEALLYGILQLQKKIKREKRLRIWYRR
Chain of bovine heart mitochondrial complex I (P17694 34-463): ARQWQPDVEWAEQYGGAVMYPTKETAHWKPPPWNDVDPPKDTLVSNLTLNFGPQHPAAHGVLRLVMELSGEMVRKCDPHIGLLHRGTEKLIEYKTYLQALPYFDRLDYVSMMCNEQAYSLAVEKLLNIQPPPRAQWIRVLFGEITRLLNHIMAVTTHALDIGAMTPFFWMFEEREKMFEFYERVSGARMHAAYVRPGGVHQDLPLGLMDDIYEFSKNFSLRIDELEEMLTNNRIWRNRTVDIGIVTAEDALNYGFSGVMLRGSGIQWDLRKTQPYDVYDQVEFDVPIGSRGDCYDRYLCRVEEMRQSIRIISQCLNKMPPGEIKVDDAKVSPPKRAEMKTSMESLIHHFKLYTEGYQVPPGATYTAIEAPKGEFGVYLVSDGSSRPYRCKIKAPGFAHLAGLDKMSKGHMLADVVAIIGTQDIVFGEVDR
Chain of bovine heart mitochondrial complex I (P15690 24-727, further chain): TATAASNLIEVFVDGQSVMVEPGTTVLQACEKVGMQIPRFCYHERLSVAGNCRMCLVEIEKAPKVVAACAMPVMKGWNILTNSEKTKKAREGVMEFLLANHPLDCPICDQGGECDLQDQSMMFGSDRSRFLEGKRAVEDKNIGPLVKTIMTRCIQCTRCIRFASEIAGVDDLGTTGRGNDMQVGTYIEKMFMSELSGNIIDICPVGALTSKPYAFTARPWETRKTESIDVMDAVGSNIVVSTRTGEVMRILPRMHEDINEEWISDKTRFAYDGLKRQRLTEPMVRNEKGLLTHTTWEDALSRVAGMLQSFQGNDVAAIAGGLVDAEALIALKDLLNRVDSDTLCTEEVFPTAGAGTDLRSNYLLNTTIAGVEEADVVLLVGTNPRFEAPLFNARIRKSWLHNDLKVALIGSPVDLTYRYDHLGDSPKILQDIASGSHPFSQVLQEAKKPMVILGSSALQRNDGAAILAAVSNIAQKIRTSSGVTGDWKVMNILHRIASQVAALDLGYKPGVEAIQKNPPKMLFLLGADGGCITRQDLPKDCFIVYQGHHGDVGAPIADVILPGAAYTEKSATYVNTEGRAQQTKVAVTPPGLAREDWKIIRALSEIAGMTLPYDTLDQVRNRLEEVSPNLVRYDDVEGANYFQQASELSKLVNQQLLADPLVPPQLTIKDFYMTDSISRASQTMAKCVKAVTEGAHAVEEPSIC
Chain of bovine heart mitochondrial complex I (P03887 whole entry): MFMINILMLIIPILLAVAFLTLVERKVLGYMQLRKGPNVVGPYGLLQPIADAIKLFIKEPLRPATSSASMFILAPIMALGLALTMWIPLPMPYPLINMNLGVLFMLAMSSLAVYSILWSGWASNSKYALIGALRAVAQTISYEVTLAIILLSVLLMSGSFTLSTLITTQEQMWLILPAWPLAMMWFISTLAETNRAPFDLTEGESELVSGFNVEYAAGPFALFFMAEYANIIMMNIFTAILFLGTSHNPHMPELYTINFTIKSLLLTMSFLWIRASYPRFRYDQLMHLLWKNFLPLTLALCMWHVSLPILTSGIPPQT
Chain of bovine heart mitochondrial complex I (P42028 37-212, further chain): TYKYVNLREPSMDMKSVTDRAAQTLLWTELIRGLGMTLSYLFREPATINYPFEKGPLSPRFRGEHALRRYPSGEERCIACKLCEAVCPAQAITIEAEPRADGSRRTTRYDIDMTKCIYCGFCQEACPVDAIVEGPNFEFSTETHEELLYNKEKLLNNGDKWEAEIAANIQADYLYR

Row | Compound | IC50 [1] | Emax [1] | NADH oxidase activity (Complex I, III, IV) % ([2]; 1 μM) | NADH oxidase activity (Complex I, III, IV) % ([2]; 5 μM) | viability at 5 µM ([3]; 5 μM) | further results
1 | COC1=C2CCCCCCCCCC=CCCCCNC(=CC1=O)C2=O [Compound 39] |  |  |  |  |  | melting point: 82 to 84 °C
2 | C=CCCCCCCCCCC1=C(O)C(=O)C=C(NCCCCC=C)C1=O [Compound 37, 5-(hex-5-enylamino)-2-hydroxy-3-(undec-10-enyl)cyclohexa-2,5-diene-1,4-dione] |  |  |  |  |  | melting point: 77 to 78 °C
3 | C=CCCCCCCCCCc1c(OC)c(OC)cc(OC)c1OC [Compound 34, 1,2,4,5-tetramethoxy-3-(undec-10-enyl)benzene] |  |  |  |  |  | melting point: 33 to 34 °C
4 | CCCCCCCCCCCCCC1=C(OC)C(=O)C=C(NCCCC(=O)OCc2ccccc2)C1=O [Compound 12, benzyl 4-(4-methoxy-3,6-dioxo-5-tridecylcyclohexa-1,4-dienylamino)butanoate] | 34 ± 2.5 µM | ≥ 53% | 67 ± 6.0% | 48 ± 3.0% | 71 ± 6.4% | 
5 | CCCCCCCCCCCCCC1=C(O)C(=O)C=C(NCCCC(=O)O)C1=O [Compound 8, 4-(4-hydroxy-3,6-dioxo-5-tridecylcyclohexa-1,4-dienylamino)butanoic Acid] | 2 ± 0.1 µM | 84 ± 1.3% | 77 ± 4.0% | 62 ± 3.0% | 36 ± 7.3% | Cytoprotection (in words) ([3]; 5 μM, compared with 6 and 9): least protection; inhibition at 5 µM (FRDA lymphocytes): 8 ± 6.6%; inhibition at 10 µM (FRDA lymphocytes): 24%
6 | CCCCCCCCCCCCCC1=C(O)C(=O)C=C(N(C)CCCC(=O)OCCCCCC)C1=O [Compound 23, hexyl 4-((4-hydroxy-3,6-dioxo-5-tridecylcyclohexa-1,4-dienyl)(methyl)amino)-butanoate] | 3.4 ± 0.1 µM | 78 ± 0.8% | 82 ± 2.4% | 36 ± 1.0% |  | NADH oxidase activity (Complex I, III, IV) % ([2]; 10 μM): 18 ± 0.5%
7 | CCCCCCCCCCCCCC1=C(O)C(=O)C=C(NCCCC(=O)OCc2ccccc2)C1=O [Compound 11, Benzyl 4-(4-hydroxy-3,6-dioxo-5-tridecylcyclohexa-1,4-dienylamino)butanoate] | 1.7 ± 0.1 µM | 70 ± 0.31% |  |  | 48 ± 5.8% | 
8 | C=CCCCCCCCCCC1=C(O)C(=O)C=C(OC)C1=O |  |  |  |  |  | melting point: 89 to 90 °C
9 | CCCCCCCCCCCCCC1=C(O)C(=O)C=C(N(C)C)C1=O [Compound 25, 5-(dimethylamino)-2-hydroxy-3-tridecylcyclohexa-2,5-diene-1,4-dione] | 1.5 ± 0.1 µM | 90 ± 3.4% | 18 ± 0.5% | 6.6 ± 0.1% |  | NADH oxidase activity (Complex I, III, IV) % ([2]; 10 μM): 5.0 ± 0.1%; viability at 0.1 µM [3]: 21 ± 3%; viability at 0.5 µM [3]: 18 ± 4%; viability at 2.5 µM [3]: 24 ± 3%
10 | CCCCCCCCCCCCCC1=C(O)C(=O)C=C(NCCCC(=O)OCCCCCC)C1=O [Compound 17, Hexyl 4-(4-hydroxy-3,6-dioxo-5-tridecylcyclohexa-1,4-dienylamino)butanoate] | 2 ± 0.4 µM | 51 ± 1.4% |  |  | 49 ± 9.9% | inhibition at 5 µM (FRDA lymphocytes): 9 ± 2.5%; inhibition at 10 µM (FRDA lymphocytes): 40 ± 9.9%
11 | CCCCCCCCCCCCCC1=C(OC)C(=O)C=C(N(C)CCCC(=O)OC(C)(C)C)C1=O [Compound 30, tert-butyl 4-((4-methoxy-3,6-dioxo-5-tridecylcyclohexa-1,4-dienyl)(methyl)amino)-butanoate] |  |  |  |  |  | viability at 1 µM [3]: 64 ± 15%; viability at 2.5 µM [3]: 82 ± 5%; inhibition at 5 µM (FRDA lymphocytes): 97%; inhibition at 10 µM (FRDA lymphocytes): 100%
12 | CCCCCCCCCCCCCC1=C(OC)C(=O)C=C(N(C)C)C1=O [Compound 26, 5-(dimethylamino)-2-methoxy-3-tridecylcyclohexa-2,5-diene-1,4-dione] | 1.6 ± 0.03 µM | 90 ± 1.1% | 70 ± 2.1% | 34 ± 0.6% |  | NADH oxidase activity (Complex I, III, IV) % ([2]; 10 μM): 15 ± 0.4%; viability at 0.1 µM [3]: 53 ± 9%; viability at 0.5 µM [3]: 66 ± 3%; viability at 2.5 µM [3]: 90 ± 3%
13 | CCCCCCCCCCCCCC1=C(O)C(=O)C=C(NCCCC(=O)OCCCC)C1=O [Compound 14, Butyl 4-(4-hydroxy-3,6-dioxo-5-tridecylcyclohexa-1,4-dienylamino)butanoate] | 11 ± 0.6 µM | 58 ± 4% |  |  | 58 ± 9% | 
14 | CCCCCCCCCCCCCC1=C(OC)C(=O)C=C(NCCCC(=O)O)C1=O [Compound 9, 4-(4-methoxy-3,6-dioxo-5-tridecylcyclohexa-1,4-dienylamino)butanoic Acid] | 1.9 ± 0.1 µM | 98 ± 2.8% |  |  | 74% | inhibition at 5 µM (FRDA lymphocytes): 41 ± 7.2%; inhibition at 10 µM (FRDA lymphocytes): 51 ± 5%
15 | CCCCCCCCCCCCCC1=C(OC)C(=O)C=C(N(C)CCCC(=O)OCCCCCC)C1=O [Compound 24, Hexyl 4-((4-methoxy-3,6-dioxo-5-tridecylcyclohexa-1,4-dienyl)(methyl)amino)butanoate] | 1.9 ± 0.1 µM | 90 ± 0.7% | 81 ± 1.5% | 33 ± 0.9% |  | NADH oxidase activity (Complex I, III, IV) % ([2]; 10 μM): 17 ± 0.4%
16 | CCCCCCCCCCCCCC1=C(O)C(=O)C=C(N(C)CCCC(=O)OC(C)(C)C)C1=O [Compound 29, tert-butyl 4-((4-hydroxy-3,6-dioxo-5-tridecylcyclohexa-1,4-dienyl)(methyl)amino)-butanoate] |  |  |  |  |  | viability at 1 µM [3]: 21%; viability at 2.5 µM [3]: 74 ± 4%

Source: patent US9957214B2, “Multifunctional radical quenchers” (ARIZONA BOARD OF REGENTS ON BEHALF OF ARIZONA STATE …, priority 2012, dated 2018)
